Here are results for eleven compounds from article PMC10746127, “New ψ-Santonin Derivatives from Crossostephium chinense and Their Anti-Proliferative Activities against Leishmania major and Human Cancer Cells A549” (Molecules, 2023).

The subject of one series is Leishmania major. The series is described as follows: anti-Leishmania major activity, MTT assay. Format: cell-based. As to conditions: for IC50: Leishmania major, MTT, 72 h, 25 °C, n = 3, read-out: IC50 L. major; for SI1 (selective index, SI to L. major): by comparing the cytotoxicity to the Vero cells. The protocol: (§1) The anti-Leishmania major activities of the isolated compounds were evaluated using an MTT assay according to an established protocol. In brief, gradient concentrations of sample solutions in dimethyl sulfoxide (DMSO) and L. major (1 × 10^5 parasite/well) in 100 μL of M199 medium were added to a 96-well plate and then incubated for 72 h at 25 °C. An amount of 100 μL MTT solution was then replaced and incubated overnight. The absorbance of formazan solution in DMSO was measured using a microplate reader at 550 nm. Miltefosine was used as a positive control. The human lung cancer cell line A549 was cultured in 10% FCS-supplemented DMEM. The cytotoxicity assay of isolated compounds was also performed in 96-well plates using the MTT method. Various concentrations of samples in DMSO and A549 (5 × 10^3 cells/well) were cultured in a CO2 incubator for 72 h. The medium was then replaced with 100 μL MTT solution and incubated for 1.5 h in the same condition. The viability was calculated by the absorbance of formazan at 550 nm using a microplate reader. The cytotoxicity assay against the Vero cell line was conducted as in A549, which is mentioned above. Doxorubicin was used as a positive control. The concentration gradient of each activity was essentially set as 100, 50, 25, 12.5, and 6.25 μg/mL (Figures S67–S69).

Series [1] deals with human lung cancer cell line A549. The series is described as follows: cytotoxicity against A549, MTT method. Format: cell-based. As to conditions: for IC50: Homo sapiens, A549, MTT, 72 h, n = 3; for SI2 (selective index, SI to A549): by comparing the cytotoxicity to the Vero cells. The protocol:
as §1
(Tetrazolium assays rely on reduction of a dye to a coloured formazan, in cell work by metabolically active cells.)

In the next series the test system is Vero cells. The series is described as follows: cytotoxicity against Vero cell line, MTT method. It counts as cell-based. As to conditions: Chlorocebus sabaeus, 72 h, n = 3. The protocol: as §1
A further series has as its system L. major. The arrangement: method as in PMID 37375252. As to conditions: isolated from the EtOAc layer; cited from earlier work.

By IC50 is commonly meant the concentration that inhibits the measured activity by half. For the compound `C=C1C(=O)O[C@H]2C3=C(C)CCC(=O)[C@]3(C)C[C@H](OC(=O)C=C(C)C)[C@@H]12` [Compound 1, Crossostenin A], in the series with Leishmania major, the IC50 was 0.81 ± 0.26 µM and the “SI1 (selective index, SI to L. major)” value stood at 7.4. Besides, in series [1], half-maximal inhibition (IC50) was put at 2.97 ± 0.58 µM and the “SI2 (selective index, SI to A549)” value is 2.0. In addition, the IC50 in the series with Vero cells was 5.99 ± 0.76 µM.

Consider `C=C1C(=O)O[C@H]2C3=C(C)CCC(=O)[C@]3(C)C[C@H](OC(=O)/C(C)=C/C)[C@@H]12` [Compound 2, Crossostenin B], for which the IC50 with Leishmania major was 0.96 ± 0.17 µM; in series [1], 2.3 ± 0.26 µM; in the series with Vero cells, 7.84 ± 0.61 µM. Further, the “SI1 (selective index, SI to L. major)” value in the series with Leishmania major came out at 8.2. Besides, the “SI2 (selective index, SI to A549)” value in series [1] is given as 3.4.

As for `C=C(C(=O)OC)[C@@H]1[C@@H](OC(=O)/C(C)=C/C)C[C@@]2(C)C(=O)CCC(C)=C2[C@H]1O` [Compound 3, Crossostenin C], the IC50 amounted to 3.75 ± 0.98 µM in the series with Leishmania major, 5.59 ± 0.72 µM in series [1] and 6.2 ± 1.36 µM with Vero cells.

Turning to `C=C(C(=O)OC)[C@@H]1[C@@H](OC(=O)/C(C)=C\C)C[C@@]2(C)C(=O)CCC(C)=C2[C@H]1O` [Compound 4, Crossostenin D], the IC50 with Leishmania major was 7.66 ± 2.26 µM; in series [1] it was 17.1 ± 1.86 µM; in the series with Vero cells it was 17.2 ± 1.36 µM.

As for `CC(=O)OC1CC2(C)C(=O)CCC(C)=C2C2OC(=O)C(CN3CCCC3C(=O)O)C12` (stereo not drawn) [Compound 5, Crossoseamine C], the IC50 is 4.72 ± 1.26 µM in the series with Leishmania major, 17.4 ± 1.86 µM in series [1] and 11.4 ± 0.98 µM in the series with Vero cells.

Turning to `CC1=C2C3OC(=O)C(CN4CCCC4C(=O)O)C3CCC2(C)C(=O)CC1` (stereo not drawn) [Compound 6, Crossoseamine D], the figures for the 50% inhibitory concentration (IC50) (in the series on Leishmania major; in series [1]; in the series with Vero cells) were 52.6 ± 11.6 µM, 83.9 ± 12.1 µM and 48.5 ± 4.07 µM, respectively.

In the case of `CC1=C2C3OC(=O)C(CN4CCCC4C(=O)O)C3C(O)CC2(C)C(=O)CC1` (stereo not drawn) [Compound 7, Crossoseamine E], the IC50 in the series with Leishmania major was 30.8 ± 5.81 µM; in series [1], 58.9 ± 13.6 µM; with Vero cells, 23.8 ± 2.47 µM.

Take `COc1cccc2c1C(=O)c1c(O)c3c(c(O)c1C2=O)C[C@@](O)(C(=O)CO)C[C@@H]3O[C@H]1C[C@H](N)[C@H](O)[C@H](C)O1` [doxorubicin, reference compound]: the figures for the IC50 (in series [1]; in the series on Vero cells) were 0.45 ± 0.13 µM and 3.82 ± 0.79 µM, respectively.

For the compound `CCCCCCCCCCCCCCCCOP(=O)([O-])OCC[N+](C)(C)C` [miltefosine, reference compound], in the series on Leishmania major, the IC50 was 18.1 ± 1.69 µM.

Consider crossoseamine A, for which the “cytotoxicity against L. major” value in the series on L. major is given as “potent cytotoxicity”.

For the compound crossoseamine B, in the series with L. major, the “cytotoxicity against L. major” value is “potent cytotoxicity”.
